Results published in PMC8717895 (Neuro-oncology Advances, 2021).
“Also recorded” adds a separate entry of the source. Like-named read-outs stand apart in the source and are kept apart here. Marks after values point to notes of the source that are not given here.

Assay type: in vivo, human
[1] = stratum A, Level 1 (100 mg/m^2), Grade 1/2
[2] = stratum A, Level 1 (100 mg/m^2), Grade 3/4
[3] = stratum A, Level 2 (130 mg/m^2), Grade 1/2
[4] = stratum A, Level 2 (130 mg/m^2), Grade 3/4
[5] = stratum A, Level 3 (170 mg/m^2), Grade 1/2
[6] = stratum A, Level 3 (170 mg/m^2), Grade 3/4
[7] = stratum A, Level 4 (220 mg/m^2), Grade 1/2
[8] = stratum A, Level 4 (220 mg/m^2), Grade 3/4

## CC1(COc2ccc3c(c2)ncn3-c2ccc3cccc(N4CCC(N)CC4)c3n2)COC1 [crenolanib]
Once daily with food, with or without RT
  Recommended pediatric phase II dosage: 170 mg/m^2
[1]
  ALT increased: 10 (83%)
  AST increased: 6 (50%)
  Abdominal pain: 2 (17%)
  Alkaline phosphatase increased: 1 (8%)
  Anemia: 3 (25%)
  Anorexia: 1 (8%)
  Diarrhea: 2 (17%)
  Dyspepsia: 2 (17%)
  GGT increased: 5 (42%)
  Headache: 0
  Hematuria: 3 (25%)
  Hypermagnesemia: 3 (25%)
  Hypernatremia: 1 (8%)
  Hypoalbuminemia: 7 (58%)
  Hypocalcemia: 1 (8%)
  Hypokalemia: 5 (42%)
  Hypophosphatemia: 7 (58%)
  Lipase increased: 5 (42%)
  Lymphocyte count decreased: 2 (17%)
  Nausea: 8 (67%)
  Neutrophil count decreased: 0
  Platelet count decreased: 4 (33%)
  Proteinuria: 4 (33%)
  Serum amylase increased: 4 (33%)
  Stomach pain: 1 (8%)
  Vomiting: 8 (67%)
  White blood cell decreased: 4 (33%)
[2]
  ALT increased: 1 (8%)
  AST increased: 0
  Abdominal pain: 0
  Alkaline phosphatase increased: 0
  Anemia: 1 (8%)
  Anorexia: 0
  Diarrhea: 0
  Dyspepsia: 0
  GGT increased: 3 (25%)
  Headache: 1 (8%)
  Hematuria: 0
  Hypermagnesemia: 0
  Hypernatremia: 0
  Hypoalbuminemia: 0
  Hypocalcemia: 0
  Hypokalemia: 1 (8%)
  Hypophosphatemia: 0
  Lipase increased: 2 (17%)
  Lymphocyte count decreased: 8 (67%)
  Nausea: 0
  Neutrophil count decreased: 5 (42%)^a
  Platelet count decreased: 1 (8%)
  Proteinuria: 1 (8%)
  Serum amylase increased: 2 (17%)
  Stomach pain: 0
  Vomiting: 1 (8%)
  White blood cell decreased: 5 (42%)
[3]
  ALT increased: 2 (33%)
  AST increased: 4 (67%)
  Abdominal pain: 3 (50%)
  Alkaline phosphatase increased: 3 (50%)
  Anemia: 3 (50%)
  Anorexia: 1 (17%)
  Diarrhea: 3 (50%)
  Dyspepsia: 0
  GGT increased: 5 (83%)
  Headache: 1 (17%)
  Hematuria: 2 (33%)
  Hypermagnesemia: 1 (17%)
  Hypernatremia: 1 (17%)
  Hypoalbuminemia: 2 (33%)
  Hypocalcemia: 2 (33%)
  Hypokalemia: 1 (17%)
  Hypophosphatemia: 3 (50%)
  Lipase increased: 2 (33%)
  Lymphocyte count decreased: 0
  Nausea: 5 (83%)
  Neutrophil count decreased: 1 (17%)
  Platelet count decreased: 3 (50%)
  Proteinuria: 5 (83%)
  Serum amylase increased: 0
  Stomach pain: 2 (33%)
  Vomiting: 6 (100%)
  White blood cell decreased: 3 (50%)
[4]
  ALT increased: 2 (33%)
  AST increased: 0
  Abdominal pain: 0
  Alkaline phosphatase increased: 0
  Anemia: 0
  Anorexia: 0
  Diarrhea: 0
  Dyspepsia: 0
  GGT increased: 0
  Headache: 1 (17%)
  Hematuria: 0
  Hypermagnesemia: 0
  Hypernatremia: 0
  Hypoalbuminemia: 0
  Hypocalcemia: 0
  Hypokalemia: 1 (17%)
  Hypophosphatemia: 0
  Lipase increased: 0
  Lymphocyte count decreased: 6 (100%)
  Nausea: 0
  Neutrophil count decreased: 2 (33%)
  Platelet count decreased: 0
  Proteinuria: 1 (17%)
  Serum amylase increased: 1 (17%)
  Stomach pain: 0
  Vomiting: 0
  White blood cell decreased: 2 (33%)
[5]
  ALT increased: 4 (67%)
  AST increased: 5 (83%)
  Abdominal pain: 2 (33%)
  Alkaline phosphatase increased: 2 (33%)
  Anemia: 3 (50%)
  Anorexia: 3 (50%)
  Diarrhea: 3 (50%)
  Dyspepsia: 1 (17%)
  GGT increased: 4 (67%)
  Headache: 0
  Hematuria: 3 (50%)
  Hypermagnesemia: 3 (50%)
  Hypernatremia: 2 (33%)
  Hypoalbuminemia: 4 (67%)
  Hypocalcemia: 1 (17%)
  Hypokalemia: 2 (33%)
  Hypophosphatemia: 3 (50%)
  Lipase increased: 1 (17%)
  Lymphocyte count decreased: 2 (33%)
  Nausea: 5 (83%)
  Neutrophil count decreased: 1 (17%)
  Platelet count decreased: 2 (33%)
  Proteinuria: 5 (83%)
  Serum amylase increased: 3 (50%)
  Stomach pain: 0
  Vomiting: 6 (100%)
  White blood cell decreased: 4 (67%)
[6]
  ALT increased: 2 (33%)
  AST increased: 1 (17%)
  Abdominal pain: 0
  Alkaline phosphatase increased: 0
  Anemia: 0
  Anorexia: 0
  Diarrhea: 0
  Dyspepsia: 0
  GGT increased: 2 (33%)^a
  Headache: 0
  Hematuria: 0
  Hypermagnesemia: 0
  Hypernatremia: 0
  Hypoalbuminemia: 0
  Hypocalcemia: 0
  Hypokalemia: 2 (33%)
  Hypophosphatemia: 0
  Lipase increased: 0
  Lymphocyte count decreased: 4 (67%)
  Nausea: 0
  Neutrophil count decreased: 0
  Platelet count decreased: 0
  Proteinuria: 0
  Serum amylase increased: 0
  Stomach pain: 0
  Vomiting: 0
  White blood cell decreased: 1 (17%)
[7]
  ALT increased: 6 (75%)
  AST increased: 7 (88%)
  Abdominal pain: 1 (13%)
  Alkaline phosphatase increased: 1 (13%)
  Anemia: 6 (75%)
  Anorexia: 2 (25%)
  Diarrhea: 4 (50%)
  Dyspepsia: 0
  GGT increased: 6 (75%)
  Headache: 1 (13%)
  Hematuria: 2 (25%)
  Hypermagnesemia: 5 (63%)
  Hypernatremia: 0
  Hypoalbuminemia: 6 (75%)
  Hypocalcemia: 3 (38%)
  Hypokalemia: 3 (38%)
  Hypophosphatemia: 6 (75%)
  Lipase increased: 2 (25%)
  Lymphocyte count decreased: 0
  Nausea: 7 (88%)
  Neutrophil count decreased: 1 (13%)
  Platelet count decreased: 3 (38%)
  Proteinuria: 5 (63%)
  Serum amylase increased: 3 (38%)
  Stomach pain: 0
  Vomiting: 8 (100%)
  White blood cell decreased: 7 (88%)
[8]
  ALT increased: 2 (25%)^a
  AST increased: 0
  Abdominal pain: 0
  Alkaline phosphatase increased: 0
  Anemia: 0
  Anorexia: 0
  Diarrhea: 0
  Dyspepsia: 0
  GGT increased: 1 (13%)^a
  Headache: 0
  Hematuria: 0
  Hypermagnesemia: 0
  Hypernatremia: 0
  Hypoalbuminemia: 0
  Hypocalcemia: 1 (13%)
  Hypokalemia: 2 (25%)
  Hypophosphatemia: 1 (13%)
  Lipase increased: 0
  Lymphocyte count decreased: 8 (100%)
  Nausea: 0
  Neutrophil count decreased: 0
  Platelet count decreased: 0
  Proteinuria: 0
  Serum amylase increased: 0
  Stomach pain: 0
  Vomiting: 0
  White blood cell decreased: 0
Stratum A, dose level 1
  DLTs attributable to crenolanib during the DLT observation period: grade 4 neutropenia
Stratum A, dose level 3
  DLTs attributable to crenolanib during the DLT observation period: grade 3 gamma-glutamyl transferase (GGT) elevation
Stratum A, dose level 4
  DLTs attributable to crenolanib during the DLT observation period: grade 3 GGT elevation; also recorded: grade 3 ALT elevation
Stratum A, during and after the DLT period
  patients having grade 3/4 elevations of ALT, AST, GGT, or alkaline phosphatase: 28%
Stratum A, once daily during and after RT, pediatric
  Maximum tolerated dose (MTD): 170 mg/m^2
Stratum A, resolved with drug interruption
  Most common grade 3/4 toxicity: leukopenia
